{
  "source": "patent US9340577B2",
  "about": "“HLA binding motifs and peptides and their uses” (priority 1992, dated 2016)",
  "key": {"[1]": {"system": "HLA-A24", "assay_type": "binding, human"}, "[2]": {"biological_target": "HLA-A*0201 (HLA-A2.1) (Homo sapiens, UniProt P04439, D140Y/D185E/D98H/E176V/E277Q/G131W/G231S/I119V/I121R/I166T/I218V/L300P/L318F/N151K/N90K/P208A/P217A/Q86G/Q94H/R138H/R169H/T345S)", "test": "biochemical", "assay_type": "binding"}, "[3]": {"biological_target": "A2.1 HLA molecules (Homo sapiens, UniProt P04439, D140Y/D185E/D98H/E176V/E277Q/G131W/G231S/I119V/I121R/I166T/I218V/L300P/L318F/N151K/N90K/P208A/P217A/Q86G/Q94H/R138H/R169H/T345S)", "assay_type": "binding", "parameters": "A*0201 / A2.1 Binding / A2 Bind. / A2 / A2.1 (binding capacity): scale not given here"}},
  "note": "Where “and” joins values, the source holds several entries; their conditions need not be identical. Identical values can stand only once. Like-named read-outs stand apart in the source and are kept apart here.",
  "data": [
    {"substance": "AAISRKMVEL", "values": [
      {"measurement": "binding to HLA-A24 (column 6; no allele head shown for these rows)", "setting": "[1]", "result": 0},
      {"measurement": "binding to HLA-A2.1 (column 3; no allele head shown for these rows)", "setting": "[2]", "result": 0}
    ]},
    {"substance": "AALSRKVAEL", "values": [
      {"measurement": "binding to HLA-A24 (column 6; no allele head shown for these rows)", "setting": "[1]", "result": 0}
    ]},
    {"substance": "AATSSSSPL", "values": [
      {"measurement": "binding to HLA-A24 (column 6; no allele head shown for these rows)", "setting": "[1]", "result": "<0.0002"},
      {"measurement": "binding to HLA-A2.1 (column 3; no allele head shown for these rows)", "setting": "[2]", "result": 0}
    ]},
    {"substance": "ALAETSYVK", "values": [
      {"measurement": "binding to HLA-A24 (column 6; no allele head shown for these rows)", "setting": "[1]", "result": 0},
      {"measurement": "binding to HLA-A2.1 (column 3; no allele head shown for these rows)", "setting": "[2]", "result": 0.0002}
    ]},
    {"substance": "ALAETSYVKV", "values": [
      {"measurement": "binding to HLA-A24 (column 6; no allele head shown for these rows)", "setting": "[1]", "result": 0},
      {"measurement": "binding to HLA-A2.1 (column 3; no allele head shown for these rows)", "setting": "[2]", "result": 0.017},
      {"measurement": "A2", "setting": "[3]", "result": 0.0150},
      {"measurement": "A2 Bind.", "setting": "[3]", "result": 0.0150}
    ]},
    {"substance": "ALGLVCVQAA", "values": [
      {"measurement": "binding to HLA-A24 (column 6; no allele head shown for these rows)", "setting": "[1]", "result": 0},
      {"measurement": "binding to HLA-A2.1 (column 3; no allele head shown for these rows)", "setting": "[2]", "result": 0.0002}
    ]},
    {"substance": "ALREEEEGV", "values": [
      {"measurement": "binding to HLA-A24 (column 6; no allele head shown for these rows)", "setting": "[1]", "result": 0},
      {"measurement": "binding to HLA-A2.1 (column 3; no allele head shown for these rows)", "setting": "[2]", "result": 0.0056},
      {"measurement": "A2 Bind.", "setting": "[3]", "result": 0.0210}
    ]},
    {"substance": "AYIDNVYKF [Peptide 979-01, reference compound]", "values": [
      {"measurement": "apparent % of available receptor (active MHC)", "setting": "[1]", "result": 8.3, "unit": "%"},
      {"measurement": "Kd", "setting": "[1]; read-out: KD from Scatchard experiments, A24", "result": 136, "unit": "nM"},
      {"measurement": "Kd", "setting": "[1]; read-out: apparent KD from cold inhibition experiments, A24", "result": 30, "unit": "nM"}
    ]},
    {"substance": "CILESLFRA", "values": [
      {"measurement": "binding to HLA-A24 (column 6; no allele head shown for these rows)", "setting": "[1]", "result": 0},
      {"measurement": "binding to HLA-A2.1 (column 3; no allele head shown for these rows)", "setting": "[2]", "result": 0.073},
      {"measurement": "A2 Bind.", "setting": "[3]", "result": 0.0460}
    ]},
    {"substance": "EALEAQQEAL", "values": [
      {"measurement": "binding to HLA-A24 (column 6; no allele head shown for these rows)", "setting": "[1]", "result": 0},
      {"measurement": "binding to HLA-A2.1 (column 3; no allele head shown for these rows)", "setting": "[2]", "result": 0}
    ]},
    {"substance": "EAQQEALGL", "values": [
      {"measurement": "binding to HLA-A24 (column 6; no allele head shown for these rows)", "setting": "[1]", "result": "<0.0002"},
      {"measurement": "binding to HLA-A2.1 (column 3; no allele head shown for these rows)", "setting": "[2]", "result": 0}
    ]},
    {"substance": "EIWEELSVMEV", "values": [
      {"measurement": "binding to HLA-A24 (column 6; no allele head shown for these rows)", "setting": "[1]", "result": 0},
      {"measurement": "binding to HLA-A2.1 (column 3; no allele head shown for these rows)", "setting": "[2]", "result": 0.013}
    ]},
    {"substance": "EMLESVIKN", "values": [
      {"measurement": "A24", "setting": "[1]", "result": 0},
      {"measurement": "A2.1", "setting": "[2]", "result": "<0.0002"}
    ]},
    {"substance": "ETSYVKVLEY", "values": [
      {"measurement": "binding to HLA-A24 (column 6; no allele head shown for these rows)", "setting": "[1]", "result": 0},
      {"measurement": "binding to HLA-A2.1 (column 3; no allele head shown for these rows)", "setting": "[2]", "result": 0}
    ]},
    {"substance": "F185.01 (LYSACFWWL) [Peptide F185.01]", "values": [
      {"measurement": "IC50", "setting": "[1]; read-out: A*2402", "result": 28, "unit": "nM"}
    ]},
    {"substance": "FLIIVLVMIAM", "values": [
      {"measurement": "binding to HLA-A24 (column 6; no allele head shown for these rows)", "setting": "[1]", "result": 0.0011},
      {"measurement": "binding to HLA-A2.1 (column 3; no allele head shown for these rows)", "setting": "[2]", "result": "0.0041 and 0.0031"}
    ]},
    {"substance": "FLLLKYRA", "values": [
      {"measurement": "binding to HLA-A24 (column 6; no allele head shown for these rows)", "setting": "[1]", "result": 0},
      {"measurement": "binding to HLA-A2.1 (column 3; no allele head shown for these rows)", "setting": "[2]", "result": 0.0007}
    ]},
    {"substance": "FLWGPRALA", "values": [
      {"measurement": "binding to HLA-A24 (column 6; no allele head shown for these rows)", "setting": "[1]", "result": 0},
      {"measurement": "binding to HLA-A2.1 (column 3; no allele head shown for these rows)", "setting": "[2]", "result": "0.042 and 0.027"},
      {"measurement": "A2", "setting": "[3]", "result": 0.0420},
      {"measurement": "A2 Bind.", "setting": "[3]", "result": 0.0420}
    ]},
    {"substance": "GASAFPTTI", "values": [
      {"measurement": "binding to HLA-A24 (column 6; no allele head shown for these rows)", "setting": "[1]", "result": "<0.0002"},
      {"measurement": "binding to HLA-A2.1 (column 3; no allele head shown for these rows)", "setting": "[2]", "result": 0}
    ]},
    {"substance": "GASSFSTTI", "values": [
      {"measurement": "binding to HLA-A24 (column 6; no allele head shown for these rows)", "setting": "[1]", "result": 0.0002},
      {"measurement": "binding to HLA-A2.1 (column 3; no allele head shown for these rows)", "setting": "[2]", "result": 0}
    ]},
    {"substance": "GASSLPTTM", "values": [
      {"measurement": "binding to HLA-A24 (column 6; no allele head shown for these rows)", "setting": "[1]", "result": 0.0010},
      {"measurement": "binding to HLA-A2.1 (column 3; no allele head shown for these rows)", "setting": "[2]", "result": 0}
    ]},
    {"substance": "GLLGDNQIM", "values": [
      {"measurement": "binding to HLA-A24 (column 6; no allele head shown for these rows)", "setting": "[1]", "result": 0.0002},
      {"measurement": "A2.1", "setting": "[2]", "result": 0.0051},
      {"measurement": "binding to HLA-A2.1 (column 3; no allele head shown for these rows)", "setting": "[2]", "result": 0.0054}
    ]},
    {"substance": "GLVCVQAA", "values": [
      {"measurement": "binding to HLA-A24 (column 6; no allele head shown for these rows)", "setting": "[1]", "result": 0},
      {"measurement": "binding to HLA-A2.1 (column 3; no allele head shown for these rows)", "setting": "[2]", "result": 0.0008}
    ]},
    {"substance": "GLVCVQAAT", "values": [
      {"measurement": "binding to HLA-A24 (column 6; no allele head shown for these rows)", "setting": "[1]", "result": 0.0001},
      {"measurement": "binding to HLA-A2.1 (column 3; no allele head shown for these rows)", "setting": "[2]", "result": 0.0007}
    ]},
    {"substance": "ILESLFRA", "values": [
      {"measurement": "binding to HLA-A24 (column 6; no allele head shown for these rows)", "setting": "[1]", "result": 0.0011},
      {"measurement": "binding to HLA-A2.1 (column 3; no allele head shown for these rows)", "setting": "[2]", "result": 0.0017}
    ]},
    {"substance": "ILLWQPIPV", "values": [
      {"measurement": "binding to HLA-A24 (column 6; no allele head shown for these rows)", "setting": "[1]", "result": 0},
      {"measurement": "binding to HLA-A2.1 (column 3; no allele head shown for these rows)", "setting": "[2]", "result": 1.4}
    ]},
    {"substance": "IMPKTGFLI", "values": [
      {"measurement": "binding to HLA-A24 (column 6; no allele head shown for these rows)", "setting": "[1]", "result": 3.2},
      {"measurement": "binding to HLA-A2.1 (column 3; no allele head shown for these rows)", "setting": "[2]", "result": 0.0035}
    ]},
    {"substance": "IMPKTGFLII", "values": [
      {"measurement": "binding to HLA-A24 (column 6; no allele head shown for these rows)", "setting": "[1]", "result": 0.050},
      {"measurement": "binding to HLA-A2.1 (column 3; no allele head shown for these rows)", "setting": "[2]", "result": 0.0007}
    ]},
    {"substance": "KAEMLESVI", "values": [
      {"measurement": "binding to HLA-A24 (column 6; no allele head shown for these rows)", "setting": "[1]", "result": "<0.0002"},
      {"measurement": "binding to HLA-A2.1 (column 3; no allele head shown for these rows)", "setting": "[2]", "result": 0}
    ]},
    {"substance": "KAEMLESVL", "values": [
      {"measurement": "binding to HLA-A24 (column 6; no allele head shown for these rows)", "setting": "[1]", "result": 0},
      {"measurement": "binding to HLA-A2.1 (column 3; no allele head shown for these rows)", "setting": "[2]", "result": 0}
    ]}
  ]
}
